US11492361B2, “Compounds useful in HIV therapy” (GlaxoSmithKline Intellectual Property Development Limited, priority 2018, dated 2022)
Where two headings read alike, the source gives them in different places.

What was measured:
[1] = target: Jurkat HIV-luciferase clones; test: Jurkat latency reversal assay; assay type: cell-based; conditions: Table 4 summary, read-out: Jurkat EC50
In short: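 Three pooled Jurkat HIV-luciferase clones (C16, I15, N6; 5,000 cells/well, maintained with 500 nM EFV) exposed to 3-fold, 14-point titrations (10 μM to 2.1 pM, 0.5% DMSO) in duplicate for 48 h at 37 °C. Luciferase luminescence read; EC50 and maximal % activation versus vehicle from four-parameter logistic fit.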

[2] = tested on: cell-associated HIV RNA (HIV gag RNA) in CD4+ T cells; test: Cell associated HIV RNA (caRNA) assay; assay type: cell-based, human; conditions: CD4+ T cells treated for 48 hours
From the text: During the productive phase of the viral life cycle, HIV produces a large number of differentially spliced transcripts collectively termed cell-associated HIV RNA (ca-HIV RNA) within some cells that are infected. In HIV-infected individuals on suppressive antiretroviral therapy (ART), changes in the levels of caHIV RNA is an accepted surrogate measure of the efficacy of HIV latency reversal.
To measure ca-HIVRNA, peripheral blood mononuclear cells (PBMCs) are isolated from leukocytes obtained by continuous-flow leukapheresis. Total CD4^+ T cells were isolated from PBMCs by negative selection using the EasySep Human CD4^+ T cell Enrichment kit (StemCell, Vancouver, Canada) per the manufacturer's recommendations. Resting CD4^+ T cells are isolated by negative selection with an immunomagnetic column as described previously (25) and either cryopreserved immediately or maintained for two days in IMDM medium (Gibco), 10% FBS, 2 μg/mL IL-2 (Peprotech), and antiretrovirals to prevent viral expansion.
For SMACm treatment, three to five replicates of 2-5×10^6 CD4^+ T cells were treated for 48 hours at 37° C. in 1 mL of RPMI medium 1640, 10% FBS, 10 μg/mL of enfuvirtide (Sigma), and 200 nM rilpivirine. 10 nM phorbol 12-myristate 13-acetate (PMA; Sigma) with 1 μM ionomycin (Sigma) was used as a positive control for LRA activation and 0.2% DMSO vehicle was used as a negative control. Following treatment, cells were lysed and RNA and DNA were co-extracted using an AIIPrep 96 RNA/DNA kit (Qiagen, Valencia, Calif.) per the manufacturer's instructions, adjusting the volume of lysis buffer to 0.6 mL, adding an on-column DNase I treatment (Qiagen) and eluting RNA in 50 μL of water. […]
HIV absolute HIV gag RNA copies per reaction were determined using an HIV gag gBlock qPCR standard corresponding to the DNA sequence of the qPCR product (5′-[…]-3′ (SEQ ID NO: 4); Integrated DNA Technologies), and copies were normalized to cell counts as determined by bright field microscopy. […]

[3] = tested on: NFKB2; test: NFkB2 gene induction; assay type: cell-based, human; conditions: normal donor CD4 T cells, 24h, read-out: NFkB2 gene induction EC50
Method: 5×10^5 normal donor CD4 T cells were treated for 24h with serial dilutions of compounds starting at 1.0 μM at 6 fold, 7 places. Total RNA was isolated using the RNEasy Mini kit (Qiagen) per the manufacturer's instructions. The following TaqMan primer probe sets were sourced from Applied Biosystems: Hs00174517_m1 (NFKB2) and Hs02800695 (HPRT1). TaqMan-based real-time PCR (Fast Virus 1-Step Master Mix, Applied Biosystems) was used to amplify host genes of interest. Gene expression was normalized to HPRT1 and comparative threshold cycle (CT) method (ΔΔCT) was used for relative fold change of gene expression as compared to untreated cells. The data was analyzed by QuantStudio3 Real-Time PCR System.

| Structure (SMILES) | EC50 [1] | caRNA Lowest efficacious concentration observed [2] | EC50 [3] | EC50 ([1]; Homo sapiens, Jurkat, 48 h) | EC50 ([3]; Homo sapiens) |
| --- | --- | --- | --- | --- | --- |
| CN[C@H](C)C(=O)N[C@@H]1CCS[C@@H]2CC(C)(C)C(C(=O)N[C@@H]3CCCc4ccccc43)N2C1=O (stereo partly drawn) [SBI-0637142] | 1 nM | >1000 | 18000 nM |  |  |
| CN[C@H](C)C(=O)N[C@@H](C(=O)N1CCC[C@@H]1C(=O)N[C@@H]1c2ccccc2C[C@@H]1OCC#CC#CCO[C@@H]1Cc2ccccc2[C@H]1NC(=O)[C@H]1CCCN1C(=O)[C@H](NC(=O)[C@@H](C)NC)C1CCCCC1)C1CCCCC1 [AZD5582, reference compound] | 8 nM | 10 | 28 nM |  |  |
| CC[C@H](NC(=O)[C@H](C)NC)C(=O)N1C[C@@H](O)C[C@H]1Cc1c(-c2[nH]c3cc(F)ccc3c2C[C@@H]2C[C@H](O)CN2C(=O)[C@H](CC)NC(=O)[C@H](C)NC)[nH]c2cc(F)ccc12 [Birinapant, reference compound] |  | >1000 |  | 200 nM | > 1000 nM |
